Values after ≈ are worked out from the molar mass of the structure shown.
Experiments:
[1] = molecular target: 3CL Protease (SARS-COV-2) (Severe acute respiratory syndrome coronavirus 2, UniProt P0DTD1); assay: 3CL Protease (SARS-COV-2) Inhibitor Assay; format: biochemical
Method: The compound is dissolved in DMSO. A series of dilutions were prepared with 5% DMSO in 3CL Protease assay buffer. 10 μl of the dilution was added to a 50 μl reaction so that the final concentration of DMSO is 1% in all of the reactions. The compound was pre-incubated in duplicate at room temperature for 30 minutes in a mixture containing 3CL Pro assay buffer, 3CL enzyme and a test compound. After 30 minutes, the enzymatic reactions were initiated by the addition of 3CL Protease substrate. The enzymatic reaction proceeded for 4 hours at room temperature. Fluorescence intensity was measured at an excitation of 360 nm and an emission of 460 nm using a Tecan Infinite M1000 microplate reader.

in vitro = conditions: human
Candida albicans = assay: Fungicidal activity MIC/MBC; format: cell-based; conditions: Yeast
MRSA = assay: Bactericidal activity MIC/MBC; format: cell-based; conditions: Staphylococcus aureus
Coronavirus 229E = assay: "Disinfectant" experiments: virus pre-mixed with compound, then added to HFFs; format: cell-based; conditions: Human coronavirus 229E, 0.25 h; mixed with virus 15 minutes at room temperature before adding to HFFs
Method: In the “disinfectant” experiments, stock solution of Compound 12 was generated by dissolving the compound in 10% DMSO solution. Different amounts of Compound 12 from the stock solution were mixed with 10^4 PFU of Coronavirus 229E. After incubation at room temperature for 15 minutes, the mixture of virus and Compound 12 was added to the culture of primary human foreskin fibroblasts (HFFs). At 24 hours post-infection, culture medium was changed and the infected HFFs were further cultured in the absence of Compound 12. The level of inhibition of virus infection and production was determined.

[2] = system: Golgi apparatus, mitochondria, and endoplasmic reticulum (ER); format: cell-based, human
Description: The effect of compound 12 was studied on cellular structures and organelles such as Golgi apparatus, mitochondria, and endoplasmic reticulum (ER).

TNF-α = TNF-α production in HEK293 Cells; format: cell-based; conditions: 5 μg/ml
Description: It was confirmed that Compound 12 stimulates TNF-α production in HEK293 Cells.

[3] = 7 days, pH 7
Description: Storage stability in buffer was monitored over time of at least 7 days to determine the effect of solution pH and degradation.

Pseudomonas = assay: Bactericidal activity MIC/MBC; format: cell-based; conditions: Gram−
[4] = Histopathological studies (H&E staining, imaging) of lungs of infected and non-infected mice; format: in vivo, BALB/c mice
Method: Group A: No infection, treated with PBS: Ten (10) BALB/c 6-weeks old female mice were used for this group. Mice were first anesthetized with isoflurane. Each mouse was intranasally treated with one dose of PBS (75 ul). Mice were sacrificed at 72 hrs, and 7 days post treatment. The lungs from these mice were collected for immunohistochemistry and cytokines analysis.
Group B: No infection, treated with Compound 12: Twenty (20) BALB/c 6-weeks old female mice was used for this group. Mice were first anesthetized with isoflurane. Each mouse was intranasally treated with one dose of 0.5 mg of […] diluted in PBS (75 ul). Mice were sacrificed at 24 hrs, 48 hrs, 72 hrs, and 7 days post treatment. The lungs from these mice were collected for immunohistochemistry and cytokines analysis.
Group C: Infection with 229E, treated with PBS: Thirty five (35) BALB/c 6-weeks old female mice were used for this group. Mice were first anesthetized with isoflurane. Each mouse was intranasally infected with 1×105 plaque forming unit (pfu) of HCoV-229E and then treated with PBS (75 ul) 24 hours later. Mice were sacrificed at 24 hrs post infection, and 24 hrs, 48 hrs, 72 hrs, 6 days, and 7 days post treatment. The lungs from these mice were collected for viral load, immunohistochemistry and cytokines analysis.
Group D: Infection with 229E, treated with Compound 12: Forty Five (45) BALB/c 6-weeks old female mice were used for this group. Mice were first anesthetized with isoflurane. Each mouse was intranasally infected with 1×10^5 pfu of HCoV-229E and then treated with 0.5 mg of Compound 12 diluted in PBS (75 ul) 24 hours later. Mice from this group were sacrificed at 24 hrs, 48 hrs, 72 hrs, 6 days and 7 days post treatment. The lungs from these mice were collected for viral load, immunohistochemistry and cytokines analysis.

[5] = Cytotoxicity in human primary cell cultures (Trypan Blue Staining); format: cell-based; conditions: human, CC50
Method: (1) HFF (human foreskin fibroblast) cells (2×105) were seeded with 2 ml of DMEM medium supplemented with 10% FBS in each well of two 12-well tissue culture plates. (2) Cells were cultured for 3 days. CSA-44 was added to test for cell toxicity. Eleven concentrations were tested: 40 μg/ml, 30 μg/ml, […], 17.5 μg/ml, 15 μg/ml, 12.5 μg/ml, 10 μg/ml, 7.5 μg/ml, 5 μg/ml, 2.5 μg/ml, and 1 μg/ml. Samples with concentration of 0 μg/ml were used as the control. Each concentration was tested in duplicates with two wells. (3) Cells were cultured for 48 hours with CSA-44. Trypan Blue Staining was used to determine the numbers of living and dead cells on a hemocytometer. Percentages of living and dead cells in each sample were calculated.
(1) HFF cells (2×105) were seeded with 2 ml of DMEM medium supplemented with 10% FBS in each well of two 12-well tissue culture plates. (2) Cells were cultured for 3 days. CMA Conjugate was added to test for cell toxicity. Eleven concentrations were tested. They were 100 μg/ml, 80 μg/ml, 60 μg/ml, 50 μg/ml, 40 μg/ml, 30 μg/ml, 25 μg/ml, 20 μg/ml, 15 μg/ml, 10 μg/ml, and 5 μg/ml. Samples with concentration of 0 μg/ml were used as the control. Each concentration was tested in duplicates with two wells. (3) Cells were cultured for 48 hours with CMA Conjugate. […] Percentages of living and dead cells in each sample were calculated.

For C[C@H](CCC(=O)NCCNC(=O)CCCC[C@@H]1SCC2NC(=O)NC21)C1CCC2C3C(C[C@H](OC(=O)CCN)[C@@]21C)[C@@]1(C)CC[C@@H](OC(=O)CCN)CC1C[C@H]3OC(=O)CCN (some centres unmarked) [Compound 12], the IC50 [1] was greater than 10 µM, the “% Activity” value ([1]; 0.0003 μM, 2 repeats) was 101% and the activity at 0.0003 µM ([1]; 0.0003 μM, 2 repeats) was 99%. For the same compound, the activity at 0.001 µM ([1]; 0.001 μM, 2 repeats) was 103%, the activity at 0.003 µM ([1]; 0.003 μM, 2 repeats) was 103% and the “% Activity” value ([1]; 0.01 μM, 2 repeats) was 100%. The activity at 0.01 µM ([1]; 0.01 μM, 2 repeats) was 96%, the activity at 0.03 µM ([1]; 0.03 μM, 2 repeats) was 95% and the “% Activity” value ([1]; 0.1 μM, 2 repeats) was 89%. The activity at 0.1 µM ([1]; 0.1 μM, 2 repeats) was 90%, the “% Activity” value ([1]; 0.3 μM, 2 repeats) was 88% and the activity at 0.3 µM ([1]; 0.3 μM, 2 repeats) was 91%. The “% Activity” value ([1]; 1 μM, 2 repeats) was 89%, the activity at 1 µM ([1]; 1 μM, 2 repeats) was 90% and the “% Activity” value ([1]; 3 μM, 2 repeats) was 79%. The activity at 3 µM ([1]; 3 μM, 2 repeats) was 82%, the inhibition at 10 µM ([1]; 10 μM) was 24% and the “% Activity” value ([1]; 10 μM, 2 repeats) was 77%. The activity at 10 µM ([1]; 10 μM, 2 repeats) was 75%, the CC50 at 3 days (in vitro) was greater than 200 µM and the MBC (Candida albicans) was 66.2 µg/mL (≈ 74.4 µM). It also gave an MIC (Candida albicans) of 66.2 µg/mL (≈ 74.4 µM), an MBC (MRSA) of 1060 µg/mL (≈ 1190 µM) and an MIC (MRSA) of 530 µg/mL (≈ 595 µM). For the same compound, the EC50 (Coronavirus 229E) was 500 µg/mL (≈ 562 µM), the “effect on overall structure and organization of cellular structures and organelles” value [2] was “did not affect the overall structure and organization” and the TNF-α generated (TNF-α) was 7,123 pg/ml. For the same compound, the “stability, time” value [3] was “up to 7 days”, the “stable with no degradation, time” value [3] was “at least 7 days” and the MBC (Pseudomonas) was 1060 µg/mL (≈ 1190 µM). The MIC (Pseudomonas) was 530 µg/mL (≈ 595 µM), the “effect on the morphology of the lung” value ([4]; 3 days post treatment, 0.5 mg intranasally) was “does not cause significant detrimental effects” and the toxicity in vivo ([4]; dosage 0.5 mg/mice) was “does not exhibit significant toxicity in vivo”. The “detection of compound in the lung tissues (staining and imaging)” value ([4]; intranasal, 0.5 mg) was “detected at 1-2 days post treatment but not in 3 days post treatment” and the CC50 at 48 h [5] was roughly 65 µg/mL (≈ 73 µM).

From patent publication US20240335547A1, “MODIFIED CHOLIC ACID CONJUGATES” (priority 2022, published 2024)
